Legend:
Vibrio fischeri [1] = assay: Metals spotted on chromatography paper sheet, dried, exposed to luminescent bacteria; assay type: cell-based; conditions: no chromatography separation
Excerpt: Upon spotting of the various metals along one side of a chromatography paper sheet, the sample spots were allowed to dry. Upon drying, the spotted sheets were exposed to the luminescent bacteria Vibrio fischeri.

Vibrio fischeri [2] = assay: Inhibition of luminescence of luminescent bacteria (general statements); assay type: cell-based

Compound | visualization of heavy metal salts by luminescent bacteria (Vibrio fischeri [1]) | inhibition of luminescence of Vibrio fischeri (Vibrio fischeri [2])
lead | able to visualize the presence | 
[Ca+2] [calcium ion] |  | Neither does the luminescence of the Vibrio fischeri appear to be immediately inhibited
mercury | able to visualize the presence | 
[Cd] [cadmium] | able to visualize the presence | 
